Laboratory results reported in patent US20240025856A1, “1,2,3,4-TETRAHYDROQUINOLINE DERIVATIVES AS INHIBITORS OF THE YAP/TAZ-TEAD ACTIVATION FOR TREATING CANCER” (KATHOLIEKE UNIVERSITEIT LEUVEN, priority 2020, published 2024).

Tested on: YAP/TAZ-TEAD transcription
Experiment: Reporter gene assay for measuring the inhibition of YAP/TAZ-TEAD transcription (TEAD-responsive element luciferase reporter in Hek293T cells)
Format: cell-based
Settings: Hek293T cells transiently transfected with TEAD-responsive element luciferase reporter; 24 hours incubation
Method: Hek293T cells are cultured in DMEM supplemented with 10% fetal bovine serum, Sodium pyruvate, Sodium bicarbonate, L-glutamine. The cells are harvested and transiently transfected with TEAD-responsive element luciferase reporter. Transfected cells are plated in 384-wells plate containing pre-diluted compounds. After 24 hours incubation at 37° C./5% CO2, assay plates were cooled down to RT and levelled to an equal volume per well, prior to the addition of 25 uL luciferase substrate SteadyLite (Perkin Elmer)/well. The plate was shaken for 10 min at 600 rpm, centrifuged for 1 min at 500 rpm and measured with an Envision reader (PerkinElmer). The amount of relative light units produced by the TEAD reporter is used to calculated percent of inhibition. The percent of reporter inhibition was calculated in the presence of a positive control inhibitor (100% inhibition) versus a condition with the presence of the vehicle basal activity of the reporter (0% inhibition). The ability of a test compound to inhibit this activity was determined as: Percentage inhibition=[[…]((RLU determined in the presence of vehicle−RLU determined for sample with test compound present) divided by (RLU determined in the presence of vehicle−RLU determined for sample with positive control inhibitor))]*100
The activities of example compounds tested are depicted in the table below. The activity ranges A, B and C refer to IC50 values in the reporter gene assay as follows: “A”: IC50<1 μM; “B”: 1 μM≤IC50≤20 μM and “C”: IC50>20 μM; NT=not tested.

IC50 | Compound
1 to 20 µM | OCCCNC1Cc2ccccc2N(c2ccc(C(F)(F)F)cc2)C1 (single isomer, unassigned) [045-En2, (R)- or (S)-3-((1-(4-(trifluoromethyl)phenyl)-1,2,3,4-tetrahydroquinolin-3-yl)amino)propan-1-ol]

Same assay, conditions: Homo sapiens, HEK-293T, 24 h, Hek293T cells transiently transfected with TEAD-responsive element luciferase reporter; 24 hours incubation

IC50 | Compound
1 to 20 µM | CS(=O)(=O)CCNC1Cc2ccccc2N(c2ccc(C(F)(F)F)cc2)C1 (stereo not drawn) [compound 049, N-(2-(methylsulfonyl)ethyl)-1-(4-(trifluoromethyl)phenyl)-1,2,3,4-tetrahydroquinolin-3-amine]
< 1 µM | C=CC(=O)NC1Cc2ccccc2N(c2ccc(C)cc2C)C1 (stereo not drawn) [compound 034, N-(1-(2,4-dimethylphenyl)-1,2,3,4-tetrahydroquinolin-3-yl)acrylamide]
> 20 µM | C=CC(=O)NC1Cc2c(-c3noc(=O)[nH]3)cccc2N(c2ccc(C(F)(F)F)cc2)C1 (stereo not drawn) [compound 166, N-(5-(5-oxo-4,5-dihydro-1,2,4-oxadiazol-3-yl)-1-(4-(trifluoromethyl)phenyl)-1,2,3,4-tetrahydroquinolin-3-yl)acrylamide]
< 1 µM | C=CC(=O)NC1Cc2ccccc2N(c2ccc(C(F)F)cc2)C1 (stereo not drawn) [compound 020, N-(1-(4-(difluoromethyl)phenyl)-1,2,3,4-tetrahydroquinolin-3-yl)acrylamide]
> 20 µM | CCC(=O)NCC1CCc2ccccc2N1c1ccc(C(F)(F)F)cc1 (stereo not drawn) [compound 188, N-((1-(4-(trifluoromethyl)phenyl)-1,2,3,4-tetrahydroquinolin-2-yl)methyl)propionamide]
< 1 µM | C=CC(=O)NCC1Cc2ccccc2N(c2ccnc(C(F)(F)F)c2)C1 (stereo not drawn) [compound 096, N-((1-(2-(trifluoromethyl)pyridin-4-yl)-1,2,3,4-tetrahydroquinolin-3-yl)methyl)acrylamide]
< 1 µM | C=CC(=O)NCC1Cc2ccccc2N(c2cc(F)cc(F)c2)C1 (stereo not drawn) [compound 111, N-((1-(3,5-difluorophenyl)-1,2,3,4-tetrahydroquinolin-3-yl)methyl)acrylamide]
1 to 20 µM | O=S1(=O)CCN1C1Cc2ccccc2N(c2ccc(C(F)(F)F)cc2)C1 (stereo not drawn) [compound 050, 2-(1-(4-(trifluoromethyl)phenyl)-1,2,3,4-tetrahydroquinolin-3-yl)-1,2-thiazetidine-1,1-dioxide]
1 to 20 µM | CCC(=O)NCC1Cc2ccccc2N(c2ccc(C#N)cc2)C1 (stereo not drawn) [compound 148, N-((1-(4-cyanophenyl)-1,2,3,4-tetrahydroquinolin-3-yl)methyl)propionamide]
< 1 µM | C=CC(=O)NCC1Cc2ccccc2N(Cc2cccc(C(F)(F)F)c2)C1 (stereo not drawn) [compound 185, N-((1-(3-(trifluoromethyl)benzyl)-1,2,3,4-tetrahydroquinolin-3-yl)methyl)acrylamide]
< 1 µM | C=CS(=O)(=O)NCC1Cc2ccccc2N(c2ccc(C(F)(F)F)cc2)C1 (stereo not drawn) [compound 122, N-((1-(4-(trifluoromethyl)phenyl)-1,2,3,4-tetrahydroquinolin-3-yl)methyl)ethenesulfonamide]
< 1 µM | C=CC(=O)NCC1Cc2ccccc2N(C2CCC(F)(F)CC2)C1 (stereo not drawn) [compound 145, N-((1-(4,4-difluorocyclohexyl)-1,2,3,4-tetrahydroquinolin-3-yl)methyl)acrylamide]
> 20 µM | C=CC(=O)NCC1Cc2c(C(=O)NS(=O)(=O)C3CC3)cccc2N(c2ccc(C(F)(F)F)cc2)C1 (stereo not drawn) [Cpd. No. 158, 3-(acrylamidomethyl)—N-(cyclopropylsulfonyl)-1-(4-(trifluoromethyl)phenyl)-1,2,3,4-tetrahydroquinoline-5-carboxamide]
< 1 µM | C=CC(=O)NC1Cc2c(NC(C)=O)cccc2N(c2ccc(C(F)(F)F)cc2)C1 (stereo not drawn) [compound 076, N-(5-acetamido-1-(4-(trifluoromethyl)phenyl)-1,2,3,4-tetrahydroquinolin-3-yl)acrylamide]
< 1 µM | C=CC(=O)NC1Cc2ccccc2N(c2ccc(C(F)(F)F)nc2)C1 (stereo not drawn) [compound 010, N-(1-(6-(trifluoromethyl)pyridin-3-yl)-1,2,3,4-tetrahydroquinolin-3-yl)acrylamide]
< 1 µM | O=S1(=O)CCN1CC1Cc2ccccc2N(c2ccc(C(F)(F)F)cc2)C1 (stereo not drawn) [compound 123, 2-((1-(4-(trifluoromethyl)phenyl)-1,2,3,4-tetrahydroquinolin-3-yl)methyl)-1,2-thiazetidine-1,1-dioxide]
< 1 µM | CCC(=O)NCC1Cc2ccccc2N(c2ccc(C(F)(F)F)cc2)C1 (stereo not drawn) [compound 098, N-((1-(4-(trifluoromethyl)phenyl)-1,2,3,4-tetrahydroquinolin-3-yl)methyl)propionamide]
< 1 µM | C=CC(=O)NC1Cc2ccccc2N(Cc2ccc(Br)cc2)C1 (stereo not drawn) [compound 191, N-(1-(4-bromobenzyl)-1,2,3,4-tetrahydroquinolin-3-yl)acrylamide]

IC50 | Compound
< 1 µM | C=CC(=O)NC1Cc2c(C(=O)O)cccc2N(c2ccc(C(F)(F)F)cc2)C1 (stereo not drawn) [compound 079, 3-acrylamido-1-(4-(trifluoromethyl)phenyl)-1,2,3,4-tetrahydroquinoline-5-carboxylic acid]
< 1 µM | C=CC(=O)NCC1Cc2ccccc2N(c2ccc(C(F)(F)F)c(F)c2)C1 (stereo not drawn) [compound 112, N-((1-(3-fluoro-4-(trifluoromethyl)phenyl)-1,2,3,4-tetrahydroquinolin-3-yl)methyl)acrylamide]
1 to 20 µM | CNS(=O)(=O)CCNC1Cc2ccccc2N(c2ccc(C(F)(F)F)cc2)C1 (stereo not drawn) [compound 051, N-methyl-2-((1-(4-(trifluoromethyl)phenyl)-1,2,3,4-tetrahydroquinolin-3-yl)amino)ethane-1-sulfonamide]
< 1 µM | C=CC(=O)NC1Cc2ccccc2N(c2ccc(F)cc2)C1 (stereo not drawn) [compound 035, N-(1-(4-fluorophenyl)-1,2,3,4-tetrahydroquinolin-3-yl)acrylamide]
< 1 µM | C=CC(=O)NCC1Cc2c(Cc3noc(=O)[nH]3)cccc2N(c2ccc(C(F)(F)F)cc2)C1 (stereo not drawn) [Cpd. No. 168, N-((5-((5-oxo-4,5-dihydro-1,2,4-oxadiazol-3-yl)methyl)-1-(4-(trifluoromethyl)phenyl)-1,2,3,4-tetrahydroquinolin-3-yl)methyl)acrylamide]
1 to 20 µM | CCC(=O)NC1Cc2c(Cc3cccnc3)cccc2N(c2ccc(C(F)(F)F)cc2)C1 (stereo not drawn) [compound 061, N-(5-(pyridin-3-ylmethyl)-1-(4-(trifluoromethyl)phenyl)-1,2,3,4-tetrahydroquinolin-3-yl)propionamide]
< 1 µM | C=CC(=O)NC1Cc2ccccc2N(C2CCCCC2)C1 (stereo not drawn) [compound 013, N-(1-cyclohexyl-1,2,3,4-tetrahydroquinolin-3-yl)acrylamide]
< 1 µM | C=CC(=O)NCC1Cc2ccccc2N(c2ccc(F)c(F)c2)C1 (stereo not drawn) [compound 101, N-((1-(3,4-difluorophenyl)-1,2,3,4-tetrahydroquinolin-3-yl)methyl)acrylamide]
1 to 20 µM | C=CC(=O)NC1Cc2cnccc2N(c2ccc(C(F)(F)F)cc2)C1 (stereo not drawn) [compound 082, N-(1-(4-(trifluoromethyl)phenyl)-1,2,3,4-tetrahydro-1,6-naphthyridin-3-yl)acrylamide]
> 20 µM | C=CC(=O)NC1Cc2c(C(=O)NC#N)cccc2N(c2ccc(C(F)(F)F)cc2)C1 (stereo not drawn) [Cpd. No. 169, 3-acrylamido-N-cyano-1-(4-(trifluoromethyl)phenyl)-1,2,3,4-tetrahydroquinoline-5-carboxamide]
< 1 µM | C=CC(=O)NC1Cc2ccccc2N(c2ccc(C(F)(F)F)cn2)C1 (stereo not drawn) [compound 011, N-(1-(5-(trifluoromethyl)pyridin-2-yl)-1,2,3,4-tetrahydroquinolin-3-yl)acrylamide]
< 1 µM | C=CC(=O)NCC1CCc2ccccc2N1c1ccc(C(F)(F)F)cc1 (stereo not drawn) [Cpd. No. 178, N-((1-(4-(trifluoromethyl)phenyl)-1,2,3,4-tetrahydroquinolin-2-yl)methyl)acrylamide]
< 1 µM | OCCNC1Cc2ccccc2N(c2ccc(C(F)(F)F)cc2)C1 (stereo not drawn) [compound 043, 2-((1-(4-(trifluoromethyl)phenyl)-1,2,3,4-tetrahydroquinolin-3-yl)amino)ethan-1-ol]
> 20 µM | C=CC(=O)NCC1Cc2c(C(=O)NS(C)(=O)=O)cccc2N(c2ccc(C(F)(F)F)cc2)C1 (stereo not drawn) [compound 157, 3-(acrylamidomethyl)-N-(methylsulfonyl)-1-(4-(trifluoromethyl)phenyl)-1,2,3,4-tetrahydroquinoline-5-carboxamide]
< 1 µM | C#CC(=O)NC1Cc2ccccc2N(c2ccc(C(F)(F)F)cc2)C1 (stereo not drawn) [compound 040, N-(1-(4-(trifluoromethyl)phenyl)-1,2,3,4-tetrahydroquinolin-3-yl)propiolamide]
< 1 µM | C=CC(=O)NC1Cc2nc(OC)ccc2N(c2ccc(C(F)(F)F)cc2)C1 (stereo not drawn) [Cpd. No. 141, N-(6-methoxy-1-(4-(trifluoromethyl)phenyl)-1,2,3,4-tetrahydro-1,5-naphthyridin-3-yl)acrylamide]
< 1 µM | C=CC(=O)NC1Cc2c(Br)cccc2N(c2ccc(C(F)(F)F)cc2)C1 (stereo not drawn) [compound 058, N-(5-bromo-1-(4-(trifluoromethyl)phenyl)-1,2,3,4-tetrahydroquinolin-3-yl)acrylamide]
